Results from paper PMC12707362, “Targeting Aurora Kinases as Essential Cell‐Cycle Regulators to Deliver Multi‐Stage Antimalarials Against Plasmodium Falciparum” (Angewandte Chemie (International Ed. in English), 2025).
Converted amounts (≈) assume the structure as drawn. Like-named read-outs stand apart in the source and are kept apart here.

How the values were obtained:
[1] = test system: P. falciparum drug-sensitive NF54 (PfNF54) asexual intra-erythrocytic parasites; experiment: SYBR Green I proliferation assay, PfNF54 asexual blood stages; format: cell-based, Plasmodium falciparum
Source text: Figure 1 Activity profile of Aur class anticancer inhibitors across the life cycle of Plasmodium falciparum parasites. a) Activity (IC50) of inhibitors (grouped based on specificity against human Aur) against P.falciparum drug‐sensitive (PfNF54) asexual intra‐erythrocytic parasites as measured with SYBR Green I fluorescence as an indicator of viability and proliferation. […] ABS, asexual blood stages of the parasite; HsAur, human Aur.
P. falciparum drug sensitive NF54 (PfNF54) and drug-resistant Dd2 (PfDd2, chloroquine, pyrimethamine and mefloquine resistant) strains were cultured in vitro in human O^+/A^+ erythrocytes (5% hematocrit) in complete medium at 2–5% parasitemia, 37 °C, shaking at 60 rpm under hypoxic conditions (90% N2, 5% O2 and 5% CO2). […] Gametocytogenesis was followed with daily media changes (including glucose) and ABS parasites removed with 50 mM N-acetylglucosamine (day 1–4 for stage II/III; days 3–7 for stage IV/V).
All inhibitors were dissolved in dimethyl sulfoxide (DMSO). […] Ring-stage ABS parasites (1% parasitemia, 1% hematocrit) were treated with compounds for 96 h at 37 °C with chloroquine disulphate (0.5 μM) as positive drug control. […] Luciferase activity was determined using a non-lysing D-luciferin substrate (1 mM in 0.1 M citrate buffer, pH 5.5, 100 μL) and bioluminescence was detected with a GloMax® - Multi Detection System with Instinct® software.

[2] = test system: multidrug-resistant PfDd2 ABS parasites; experiment: SYBR Green I proliferation assay, PfDd2 asexual blood stages; format: cell-based; conditions: Plasmodium falciparum, DD2, read-out: Pf Dd2 ABS IC50
Method: (§1) (B) Antiplasmodial activity of nine anticancer aurora kinase inhibitors (selected based on their PfNF54 ABS activity) against P. falciparum multidrug-resistant ABS parasites (PfDd2 and PfK1). (C) Kinobead competitive inhibition data.
P. falciparum drug sensitive NF54 (PfNF54) and drug-resistant Dd2 (PfDd2, chloroquine, pyrimethamine and mefloquine resistant) strains were cultured in vitro in human O^+/A^+ erythrocytes (5% hematocrit) in complete medium at 2–5% parasitemia, 37 °C, shaking at 60 rpm under hypoxic conditions (90% N2, 5% O2 and 5% CO2). Immature and mature gametocytes were produced from P. falciparum 3D7elo1-pfs16-CBG99 (kind gift from Pietro Alano, ISS, Italy) ^[1] as described^[2,3] by simultaneously applying nutrient starvation and decreasing hematocrit to induce >97% ring-stage ABS parasites (0.5% parasitemia, 6% hematocrit). Gametocytogenesis was followed with daily media changes (including glucose) and ABS parasites removed with 50 mM N-acetylglucosamine (day 1–4 for stage II/III; days 3–7 for stage IV/V).
(§2) All inhibitors were dissolved in dimethyl sulfoxide (DMSO). Antiplasmodium activity of selected anti-cancer inhibitors was determined on P. falciparum NF54 and Dd2 strains, measuring SYBR Green I fluorescence (485 nm excitation, 538 nm emission) as an indicator of proliferation^[4]. Ring-stage ABS parasites (1% parasitemia, 1% hematocrit) were treated with compounds for 96 h at 37 °C with chloroquine disulphate (0.5 μM) as positive drug control. The activity of the inhibitors was tested against immature (>95% stage II/III) and late-stage (>90% stage IV/V) gametocytes using a luciferase reporter assay on 3D7elo1-pfs16-CBG99 ^[1]. […] Luciferase activity was determined using a non-lysing D-luciferin substrate (1 mM in 0.1 M citrate buffer, pH 5.5, 100 μL) and bioluminescence was detected with a GloMax® - Multi Detection System with Instinct® software.

[3] = test system: multidrug-resistant PfK1 ABS parasites; experiment: SYBR Green I proliferation assay, PfK1 asexual blood stages; format: cell-based; conditions: Plasmodium falciparum
Method: as §1, §2

[4] = test system: synthetic β-hematin (βH) formation; experiment: NP-40 mediated cell-free β-hematin inhibition assay; format: biochemical; conditions: cell-free NP-40, pH 4.8, 5 h
Method: The β-hematin inhibition assay, as described in^[30,31] was used to test the inhibitors for their ability to inhibit β-hematin formation. The test samples were prepared as 20 mM or 10 mM stock solutions in dimethyl sulfoxide (DMSO). Serial dilutions of each inhibitor (100 μL) were performed from column 12 to column 2 of a 96-well plate in triplicate, with column 1 serving as a negative control (0 μM test inhibitor). The samples were tested at a starting in-well concentration of 1000 μM (20 mM stock) or 500 μM (10 mM stock). An “NP-40 substitute” detergent was added (305.5 μM) to each well to mimic the lipophilic environment in which hemozoin formation occurs within the parasite’s digestive vacuole, in helping to mediate the formation of β-hematin. A 25 mM hematin stock was prepared by sonicating heme in DMSO and then suspending 178.8 μL of this in 1 M acetate buffer (20 mL, pH 4.8). Then, 100 μL of the hematin suspension was added to each well to a final well volume of 200 μL. The plate was then incubated for 5 hours at 37 °C. After incubation, 32 μL and 60 μL of 50% pyridine solution and acetone were added, respectively. The pyridine-ferrochrome method by^[31] was used for UV-vis analysis, with the heme-pyridine complex absorbance measured at 405 nm. Data were analysed using Microsoft Excel and GraphPad Prism v10.5 software.

[5] = test system: PfNF54 male gamete formation (exflagellation); experiment: P. falciparum Dual Gamete Formation Assay (PfDGFA), male; format: cell-based; conditions: Plasmodium falciparum
Method: (§3) The Pf DGFA^[8] was performed by incubating PfNF54 gametocytes with test molecules in 384-well plates for 48 h. Gametogenesis was triggered with the addition of xanthurenic acid and a decrease in temperature. Male and female gametes were identified through fluorescent microscopy and quantified from recorded data using a custom imaging algorithm and then compared to negative (DMSO) and positive (1 µM cabamiquine) controls. Percentage inhibition was calculated, and dose-response curves were constructed in GraphPad Prism v10.5 to calculate IC50 values.

PfNF54 female gametes = experiment: P. falciparum Dual Gamete Formation Assay (PfDGFA), female; format: cell-based, Plasmodium falciparum
Method: as §3

eLogD = format: physicochemical
Source text: (§4) In vitro ADME analysis for logD, kinetic solubility (PBS, pH 7.4), human liver microsome clearance and t1/2, rat hepatocyte clearance and t1/2, and protein binding in Albumax media (simulating the malaria parasite culture media) was all performed as per standard assays by TCG LifeSciences.

Kinetic solubility = format: physicochemical; conditions: aqueous buffer, kinetic from dmso stock; PBS, pH 7.4; read-out: Kin sol pH 7.4
Source text: as §4

[6] = Human liver microsome clearance; format: in vitro ADME; conditions: human liver microsomes; for microsomal CLint: read-out: HL microsome CLint; for half-life: read-out: HL microsome t1/2
Source text: as §4

Rat hepatocyte clearance = format: in vitro ADME; conditions: rat hepatocytes; for half-life: read-out: Rat hepatocyte t1/2
Source text: as §4

[7] = Plasmodium falciparum, NF54, 96 h, read-out: Pf NF54 ABS IC50
[8] = Plasmodium falciparum, NF54, read-out: Pf NF54 ABS IC50
[9] = multidrug-resistant K1, read-out: Pf K1 ABS IC50
[10] = 48 h, read-out: Pf DGFA IC50 Male
[11] = read-out: IC50 male gamete exflagellation
[12] = Plasmodium falciparum, NF54, 96 h, ring-stage ABS, 96 h, SYBR Green I, read-out: Pf NF54 ABS IC50
[13] = Plasmodium falciparum, NF54, bounds stated in text, read-out: Pf NF54 ABS IC50
[14] = ring-stage ABS, 96 h, SYBR Green I, read-out: Pf NF54 ABS IC50
[15] = Plasmodium falciparum, 48 h, read-out: Pf DGFA IC50 Female

SMILES | IC50 [1, 7] | IC50 [1, 8] | IC50 [2] | IC50 ([3]; K1, read-out: Pf K1 ABS IC50) | IC50 [4] | IC50 [3, 9] | IC50 [5, 10] | IC50 [5, 11] | IC50 (PfNF54 female gametes; Plasmodium falciparum, 48 h; read-out: Pf DGFA IC50 Female) | eLogD pH 7.4 (eLogD) | solubility kinetic (Kinetic solubility) | microsomal CLint [6] | half-life [6] | Rat hepatocyte CLint (Rat hepatocyte clearance) | half-life (Rat hepatocyte clearance) | IC50 [1, 12] | IC50 [1, 13] | IC50 [1, 14] | IC50 (PfNF54 female gametes; 48 h; read-out: Pf DGFA IC50 Female) | IC50 (PfNF54 female gametes; [15])
CCN1CCN(C(=O)Cc2ccc(Nc3ncc(F)c(Nc4ccc(C(=O)Nc5ccccc5Cl)cc4)n3)cc2)CC1 [AAi I, Aurora A Inhibitor I] | 475 ± 90.1 nM | < 1000 nM | 903 nM | 342 nM | < 20000 nM |  |  |  |  |  |  |  |  |  |  |  |  |  |  | 
O=C(Nc1c[nH]nc1-c1nc2ccc(CN3CCOCC3)cc2[nH]1)NC1CC1 [AT83, AT9283] |  |  | 105 nM |  |  | 102 nM | 800 nM | 786 ± 16 nM | > 10000 nM | 2.2 | 22.2 µM (≈ 8.47 µg/mL) | 3.5 µL/min/mg | 6.58 h | 12.6 µL min^−1/10e6 cells | 0.917 h |  |  |  |  | 
CCN(CCO)CCCOc1ccc2c(Nc3cc(CC(=O)Nc4cccc(F)c4)n[nH]3)ncnc2c1 [AZD-1152, AZD-1152-HQPA] | 753 nM | < 1000 nM | 490 nM |  | < 20000 nM | 341 nM |  |  |  |  |  |  |  |  |  |  |  |  |  | 
O=C(Nc1cccc(Nc2nccc(Nc3cccc(C(F)(F)F)c3)n2)c1)C1CC1 [Aki III, Aurora kinase inhibitor III] |  |  | 1600 nM |  | < 20000 nM | 1380 nM |  |  |  |  |  |  |  |  |  | 819 nM | < 1000 nM |  |  | 
COc1cc(N2CCC(N3CCN(C)CC3)CC2)ccc1Nc1ncc(Cl)c(Nc2ccccc2S(=O)(=O)C(C)C)n1 [TAE684, NVP-TAE684] |  |  | 227 nM |  | 41400 ± 2300 nM |  | 120 nM | 116 ± 17 nM |  | 3.4 | 198 µM (≈ 122 µg/mL) | 25.4 µL/min/mg | 0.917 h | 3.5 µL min^−1/10e6 cells | 3.28 h | 280 ± 13 nM |  | 279 nM | 2260 nM | 2300 ± 50 nM
COc1cc2c(Nc3ccc(NC(=O)c4ccccc4)cc3)ncnc2cc1OCCCN1CCOCC1 [ZM-39, ZM-447439] |  |  | 374 nM |  | < 20000 nM | 277 nM | > 10000 nM |  |  |  |  |  |  |  |  | < 250 nM | < 1000 nM | 235 nM |  | > 10000 nM
